These results are taken from PubChem BioAssay AID200 (DTP/NCI, 2004).

Several values for one entry are separate records, joined by “and”; a condition that tells them apart may be missing. Equal values may be shown once. Inconclusive results and toxic doses are left out.

The experiment deals with B6C3F1 mice, B16 melanoma ip, median survival T/C. Description: NCI In Vivo Anticancer Drug Screen. Data for tumor model B16 Melanoma (intraperitoneal) in B6C3F1 mice. The conditions noted are these: endpoint: median survival time, schedule: Q01DX009 (ip), higher = longer survival. In short, it runs like this: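 Tumor-bearing mice received test compound; a separate group got vehicle only. Survival was then compared, with results reported as treated over control.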

Where [1] appears, read: dose: 25.0 mg/kg/injection, vehicle: saline.
The mark [2] stands for this setting: dose: 50.0 mg/kg/injection, vehicle: saline.
Where [3] appears, read: dose: 1.56 mg/kg/injection, vehicle: saline with Tween-80.
Setting [4] is: dose: 3.12 mg/kg/injection, vehicle: saline with Tween-80.
[5] abbreviates: dose: 6.25 mg/kg/injection, vehicle: saline.
Where [6] appears, read: dose: 100.0 mg/kg/injection, vehicle: saline with Tween-80.
The mark [7] stands for this setting: dose: 12.5 mg/kg/injection, vehicle: saline.
[8] abbreviates: dose: 100.0 mg/kg/injection, vehicle: saline.
The mark [9] stands for this setting: dose: 200.0 mg/kg/injection, vehicle: saline.
[10] abbreviates: dose: 12.5 mg/kg/injection, vehicle: saline with Tween-80.
Setting [11] is: dose: 25.0 mg/kg/injection, vehicle: saline with Tween-80.
Setting [12] is: dose: 50.0 mg/kg/injection, vehicle: saline with Tween-80.
The mark [13] stands for this setting: dose: 200.0 mg/kg/injection, vehicle: saline with Tween-80.
[14] abbreviates: dose: 12.5 mg/kg/injection, vehicle: Klucel (hydroxypropylcellulose) (HPC).
Setting [15] is: dose: 25.0 mg/kg/injection, vehicle: Klucel (hydroxypropylcellulose) (HPC).
[16] abbreviates: dose: 50.0 mg/kg/injection, vehicle: Klucel (hydroxypropylcellulose) (HPC).
Where [17] appears, read: dose: 100.0 mg/kg/injection, vehicle: Klucel (hydroxypropylcellulose) (HPC).
Setting [18] is: dose: 400.0 mg/kg/injection, vehicle: saline with Tween-80.
Setting [19] is: dose: 6.25 mg/kg/injection, vehicle: saline with Tween-80.

For the molecule `N=C1CCCS1`, the T/C by setting is: under setting [1], 109 % of control; under setting [2], 120 % of control.
As for `CO[C@@H]1[C@H](O)CC[C@]2(CO2)[C@H]1[C@@]1(C)O[C@@H]1CC=C(C)C`, the T/C reads like this: under setting [3], 102 % of control and 105 % of control; under setting [4], 108 % of control and 109 % of control and 122 % of control; (dose: 3.13 mg/kg/injection, vehicle: saline) 108 % of control; under setting [5], 111 % of control; under setting [6], 104 % of control.
For `COC1C(/C=C/C(C)=O)OC2OC(C)(C)OC21` (stereo not given), the T/C under setting [5] is 92 % of control and 94 % of control and 100 % of control; the T/C under setting [7] was 93 % of control and 97 % of control and 98 % of control; the T/C under setting [1] was 91 % of control and 96 % of control and 101 % of control; the T/C under setting [2] is 108 % of control and 87 % of control and 101 % of control; the T/C under setting [8] is 93 % of control and 103 % of control and 104 % of control; the T/C under setting [9] is 112 % of control.
For `CC(=O)C[n+]1ccc(C)cc1Sc1ccccc1C`, the T/C was 97 % of control under setting [10]; 97 % of control under setting [11]; 96 % of control under setting [12]; 100 % of control under setting [6]; 101 % of control under setting [13].
Turning to `CC1(C)COCN1COC1CCCCC1`, the T/C under setting [5] was 99 % of control; the T/C under setting [7] was 114 % of control; the T/C under setting [11] was 102 % of control; the T/C under setting [1] was 99 % of control; the T/C under setting [12] is 112 % of control; the T/C under setting [2] is 114 % of control. In addition, the T/C was 115 % of control under setting [6] and 106 % of control under setting [8].
Take `O=C(NC(CO)C(=O)O)OCc1ccccc1` (stereo not given): the T/C by setting is: under setting [11], 97 % of control; under setting [12], 98 % of control; under setting [6], 87 % of control and 102 % of control.
As for `NCCc1cc(O)c(O)c(O)c1`, the T/C is, setting by setting: under setting [7], 106 % of control; under setting [1], 105 % of control; under setting [2], 101 % of control; under setting [8], 98 % of control; under setting [9], 106 % of control; (dose: 400.0 mg/kg/injection, vehicle: saline) 96 % of control.
Turning to `COC1/C=C\C=C(/C)C(=O)NC2=CC(=O)C(NCCCl)=C(CC(C)CC(OC)C(O)C(C)/C=C(/C)C1OC(N)=O)C2=O` (stereo not given), the T/C (dose: 3.0 mg/kg/injection, vehicle: DMSO) is 109 % of control and 103 % of control; the T/C (dose: 6.0 mg/kg/injection, vehicle: DMSO) is 112 % of control and 106 % of control; the T/C (dose: 12.0 mg/kg/injection, vehicle: DMSO) is 112 % of control and 123 % of control; the T/C (dose: 24.0 mg/kg/injection, vehicle: DMSO) was 109 % of control and 120 % of control.
For `CC1=C[S+](c2ccccc2)c2cccc3cc4ccccc4c1c23` (stereo not given), the T/C runs as follows: (dose: 0.06 mg/kg/injection, vehicle: saline with Tween-80) 106 % of control; (dose: 0.12 mg/kg/injection, vehicle: saline with Tween-80) 103 % of control; (dose: 0.25 mg/kg/injection, vehicle: saline with Tween-80) 115 % of control; (dose: 0.5 mg/kg/injection, vehicle: saline with Tween-80) 100 % of control; (dose: 1.0 mg/kg/injection, vehicle: saline with Tween-80) 111 % of control; (dose: 2.0 mg/kg/injection, vehicle: saline with Tween-80) 112 % of control and 106 % of control.
`C/C1=C/C(C)C(O)C(O)C(=O)C2(C)CNC3=C(O2)C(=O)c2c(cc(C)c(O)c2C1=O)C3=O` (stereo not given): the T/C runs as follows: (dose: 4.0 mg/kg/injection, vehicle: distilled water + Tween-80) 103 % of control; (dose: 8.0 mg/kg/injection, vehicle: distilled water + Tween-80) 100 % of control; (dose: 16.0 mg/kg/injection, vehicle: distilled water + Tween-80) 105 % of control; (dose: 32.0 mg/kg/injection, vehicle: distilled water + Tween-80) 103 % of control.
On to `COc1cc(C(=O)N/N=C/c2cccc([N+](=O)[O-])c2)cc(OC)c1OC`, for which the T/C was 88 % of control under setting [10] and 90 % of control under setting [11].
Regarding `COc1ccc2[nH]c3ccc4cc[n+](CCN5CCC(C6CCN(CC[n+]7ccc8ccc9[nH]c%10ccc(OC)cc%10c9c8c7)CC6)CC5)cc4c3c2c1`, the T/C by setting is: (dose: 6.0 mg/kg/injection, vehicle: water) 155 % of control; (dose: 12.0 mg/kg/injection, vehicle: water) 158 % of control; under setting [14], 155 % of control; under setting [15], 203 % of control; (dose: 25.0 mg/kg/injection, vehicle: water) 177 % of control; under setting [16], 192 % of control. The T/C by setting is: (dose: 50.0 mg/kg/injection, vehicle: water) 168 % of control; under setting [17], 167 % of control; (dose: 100.0 mg/kg/injection, vehicle: water) 197 % of control.
Regarding `COc1cc([NH-])c([NH-])cc1OC.[Cl][Pt+2][Cl]`, the T/C reads like this: (dose: 20.0 mg/kg/injection, vehicle: saline with Tween-80) 100 % of control; (dose: 40.0 mg/kg/injection, vehicle: saline with Tween-80) 101 % of control; (dose: 80.0 mg/kg/injection, vehicle: saline with Tween-80) 112 % of control.
`COc1ccc(NC(=O)Oc2ccc3c(C)cc(=O)oc3c2)c(OC)c1`: the T/C is, setting by setting: under setting [11], 99 % of control; under setting [12], 94 % of control; under setting [6], 99 % of control; under setting [13], 100 % of control; under setting [18], 98 % of control.
Regarding `CC(Oc1ccccc1-c1ccccc1)C(=O)N(C)C` (stereo not given), the T/C under setting [10] is 95 % of control; the T/C under setting [11] is 100 % of control; the T/C under setting [12] is 95 % of control; the T/C under setting [6] is 98 % of control; the T/C under setting [13] was 106 % of control; the T/C under setting [18] was 100 % of control.
Take `C[C@]12CCC(=O)C=C1CC[C@@H]1[C@@H]2C(=O)C[C@@]2(C)[C@H]1CC[C@]2(O)C(=O)CO`: the T/C was 106 % of control under setting [16]; 93 % of control under setting [17]; 108 % of control (dose: 200.0 mg/kg/injection, vehicle: Klucel (hydroxypropylcellulose) (HPC)); 117 % of control (dose: 400.0 mg/kg/injection, vehicle: Klucel (hydroxypropylcellulose) (HPC)).
As to `COc1cc2c(cc1OC)-c1c3c(cc4c1[C@@H](C2)N(C)CC4)OCO3`, the T/C (dose: 6.25 mg/kg/injection, vehicle: distilled water + Tween-80) was 98 % of control; the T/C (dose: 12.5 mg/kg/injection, vehicle: distilled water + Tween-80) was 89 % of control; the T/C (dose: 25.0 mg/kg/injection, vehicle: distilled water + Tween-80) was 104 % of control; the T/C (dose: 50.0 mg/kg/injection, vehicle: distilled water + Tween-80) was 92 % of control.
Take `COC1=C(OC)C(=O)C(C/C=C(\C)CC/C=C(\C)CC/C=C(\C)CC/C=C(\C)CC/C=C(\C)CC/C=C(\C)CC/C=C(\C)CC/C=C(\C)CC/C=C(\C)CCC=C(C)C)=C(C)C1=O`: the T/C under setting [19] was 91 % of control; the T/C under setting [10] is 97 % of control and 101 % of control; the T/C under setting [11] is 93 % of control and 96 % of control; the T/C under setting [12] was 97 % of control; the T/C under setting [6] is 94 % of control and 98 % of control; the T/C under setting [13] was 87 % of control and 90 % of control.
As for `S=c1nc[nH]c2nc[nH]c12`, the T/C is 100 % of control (dose: 6.25 mg/kg/injection, vehicle: Klucel (hydroxypropylcellulose) (HPC)); 97 % of control (dose: 7.5 mg/kg/injection, vehicle: Klucel (hydroxypropylcellulose) (HPC)); 94 % of control under setting [14]; 96 % of control under setting [15].
On to `CCCCCCCCSC1=C(Cl)C(=O)C(OC)=C(OC)C1=O`, for which the T/C was 100 % of control under setting [3], 93 % of control under setting [4] and 89 % of control under setting [19].
